For 16 compounds, Ki results are on record in paper PMC9693918, “May Sulfonamide Inhibitors of Carbonic Anhydrases from Mammaliicoccus sciuri Prevent Antimicrobial Resistance Due to Gene Transfer to Other Harmful Staphylococci?” (International Journal of Molecular Sciences, 2022).

This test addresses T1, MscCAγ (M. sciuri γ-CA) (Mammaliicoccus sciuri, UniProt A0AB37HNM1).
T1 construct: gene OWO77_11715
T1 sequence (A0AB37HNM1 1-169): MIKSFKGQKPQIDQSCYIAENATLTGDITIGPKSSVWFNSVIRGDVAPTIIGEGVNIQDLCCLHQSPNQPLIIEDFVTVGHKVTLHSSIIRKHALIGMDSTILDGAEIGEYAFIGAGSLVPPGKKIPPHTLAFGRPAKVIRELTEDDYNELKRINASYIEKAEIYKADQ
Description: stopped-flow CO2 hydration assay, phenol red. It counts as biochemical. From the text: stopped-flow CO2 hydration assay, phenol red on MscCAγ (M. sciuri γ-CA)

Like-named read-outs stand apart in the source and are kept apart here.

In the case of `CCN[C@H]1CN(CCCOC)S(=O)(=O)c2sc(S(N)(=O)=O)cc21` [BRZ], the Ki (read-out: KI (nM) ^a / MscCAγ) worked out at 100 nM. On to `NS(=O)(=O)c1nnc(NS(=O)(=O)c2ccccc2)s1` [BZA], for which the Ki (read-out: KI (nM) ^a / MscCAγ) was determined as 444 nM. Take `Cc1ccc(-c2cc(C(F)(F)F)nn2-c2ccc(S(N)(=O)=O)cc2)cc1` [CLX]: the Ki (read-out: KI (nM) ^a / MscCAγ) stood at 3020 nM. Same read-out and setting: the result for `NS(=O)(=O)c1cc(Cl)c(Cl)c(S(N)(=O)=O)c1` [DCP] reads 8580 nM; that for `NS(=O)(=O)c1cc2c(cc1Cl)NCNS2(=O)=O` [HCT], 18300 nM. For the compound `NS(=O)(=O)c1ccc(S(=O)(=O)Nc2cccc3c(Cl)c[nH]c23)cc1` [IND], the Ki (read-out: KI (nM) ^a / MscCAγ) stood at 369 nM. For `CC(=O)N=c1sc(S(N)(=O)=O)nn1C` [MZA], for the setting “read-out: KI (nM) ^a / MscCAγ”, the Ki turned out to be 94.5 nM. With `O=C1NS(=O)(=O)c2ccccc21` [SAC], where the note is “read-out: KI (nM) ^a / MscCAγ”, the Ki was 29700 nM. Turning to `CCN1CCCC1CNC(=O)c1cc(S(N)(=O)=O)ccc1OC` (stereo not shown) [SLP], for the setting “read-out: KI (nM) ^a / MscCAγ”, the Ki worked out at 2200 nM. Still for that read-out and setting: the result for `NS(=O)(=O)c1ccc(N2CCCCS2(=O)=O)cc1` [SLT] reads 405 nM.

With `CC1(C)O[C@@H]2[C@@H](CO[C@@]3(COS(N)(=O)=O)OC(C)(C)O[C@@H]23)O1` [TPM], the Ki (read-out: KI (nM) ^a / MscCAγ) was determined as 578 nM. The same measure, in the same setting: then `Cc1onc(-c2ccccc2)c1-c1ccc(S(N)(=O)=O)cc1` [VLX], with 1540 nM; and `NS(=O)(=O)Cc1noc2ccccc12` [ZNS], with 923 nM.

With `NCCc1ccc(S(N)(=O)=O)cc1` [compound 6, 6], the Ki stood at 176 nM.

Take `NS(=O)(=O)c1ccc(CCNS(=O)(=O)c2ccc([N+](=O)[O-])cc2CO)cc1` [compound 21, 21]: the Ki (read-out: KI (nM) ^a / MscCAγ) came out at 83.4 nM.

In the case of `Nc1ccc(S(=O)(=O)Nc2ccc(S(N)(=O)=O)cc2)cc1` [compound 22, 22], the Ki (read-out: KI (nM) ^a / MscCAγ) was determined as 72.5 nM.
